How the values were obtained:
[1] = Passage of orally administered free calcitonin across the intestinal barrier; type: in vivo; settings: 330 IU administered orally
Procedure: It is explained by the fact that during a massive administration of peptide such as calcitonin, a small percentage crosses the intestinal barrier (1%) without being denatured. In this case, 330 IU were administered, which corresponds to a lymphatic passage of 3.3 IU (passage from the intestinal lumen into the plasma, via the lymphatic canal pathway). However, the IV-route effect of calcitonin starts at 0.9 IU. It is thus normal to observe this effect of free calcitonin. The hypocalcaemia observed after oral administration of calcitonin decreases over time to return to the normal level after 90 min.

[2] = massive oral administration of peptide; cited from earlier work

- lymphatic passage (intestinal lumen into plasma via lymphatic canal pathway) [1]: 3.3 IU
SMILES: CC(C)C[C@H](NC(=O)[C@H](CCCCN)NC(=O)CNC(=O)[C@H](CC(C)C)NC(=O)[C@@H](NC(=O)[C@@H]1CSSC[C@H](N)C(=O)N[C@@H](CO)C(=O)N[C@@H](CC(N)=O)C(=O)N[C@@H](CC(C)C)C(=O)N[C@@H](CO)C(=O)N[C@@H]([C@@H](C)O)C(=O)N1)C(C)C)C(=O)N[C@@H](CO)C(=O)N[C@@H](CCC(N)=O)C(=O)N[C@@H](CCC(=O)O)C(=O)N[C@@H](CC(C)C)C(=O)N[C@@H](Cc1c[nH]cn1)C(=O)N[C@@H](CCCCN)C(=O)N[C@@H](CC(C)C)C(=O)N[C@@H](CCC(N)=O)C(=O)N[C@H](C(=O)N[C@@H](Cc1ccc(O)cc1)C(=O)N1CCC[C@H]1C(=O)N[C@@H](CCCNC(=N)N)C(=O)N[C@H](C(=O)N[C@@H](CC(N)=O)C(=O)N[C@H](C(=O)NCC(=O)N[C@@H](CO)C(=O)NCC(=O)N[C@H](C(=O)N1CCC[C@H]1C(N)=O)[C@@H](C)O)[C@@H](C)O)[C@@H](C)O)[C@@H](C)O [free calcitonin, salmon calcitonin]
- percentage crossing the intestinal barrier without being denatured [2]: 1%

Reference: patent US6656497B2, “Liposomal vector for active-principle” (Lipogel, priority 1997, dated 2003)
